From ChEMBL document CHEMBL4033759, “Photoaffinity Labeling of the Human A2A Adenosine Receptor and Cross-link Position Analysis by Mass Spectrometry” (ACS Med Chem Lett, 2017)

Tests used:
Adenosine receptor A2a [1] = molecular target: T1, Adenosine receptor A2a (Homo sapiens, UniProt P29274); assay: Binding affinity to C-terminal 10xHis and 1D4-tagged C-terminal-truncated human A2A adenosine receptor (1 to 316 residues) expressed in Pichia pastoris expression system at 8 nM after 1 hr by fluorescence polarization assay; settings: read-out: Kd(app)
Adenosine receptor A2a [2] = molecular target: T1, Adenosine receptor A2a; assay: Binding affinity to human A2A adenosine receptor expressed in HEK293 cells after 1 hr by fluorescence polarization assay; format: cell-based
Adenosine receptor A2a [3] = molecular target: T1, Adenosine receptor A2a; assay: Binding affinity to C-terminal 10xHis and 1D4-tagged C-terminal-truncated human A2A adenosine receptor (1 to 316 residues) expressed in Pichia pastoris expression system at 4 nM after 1 hr by fluorescence polarization assay; settings: read-out: Kd(app)
Adenosine receptor A2a [4] = molecular target: T1, Adenosine receptor A2a; assay: Binding affinity to C-terminal 10xHis and 1D4-tagged C-terminal-truncated human A2A adenosine receptor (1 to 316 residues) expressed in Pichia pastoris expression system at 2 nM after 1 hr by fluorescence polarization assay; settings: read-out: Kd(app)
Adenosine receptor A2a [5] = molecular target: T1, Adenosine receptor A2a; assay: Binding affinity to C-terminal 10xHis and 1D4-tagged C-terminal-truncated human A2A adenosine receptor (1 to 316 residues) expressed in Pichia pastoris expression system at 1 nM after 1 hr by fluorescence polarization assay; settings: read-out: Kd(app)
Adenosine receptor A2a [6] = molecular target: T1, Adenosine receptor A2a; assay: Displacement of MRS5346 from C-terminal 10xHis and 1D4-tagged C-terminal-truncated human A2A adenosine receptor (1 to 316 residues) expressed in Pichia pastoris expression system after 1 hr by fluorescence polarization assay

T1 sequence (P29274 whole entry, the tested form may be a part): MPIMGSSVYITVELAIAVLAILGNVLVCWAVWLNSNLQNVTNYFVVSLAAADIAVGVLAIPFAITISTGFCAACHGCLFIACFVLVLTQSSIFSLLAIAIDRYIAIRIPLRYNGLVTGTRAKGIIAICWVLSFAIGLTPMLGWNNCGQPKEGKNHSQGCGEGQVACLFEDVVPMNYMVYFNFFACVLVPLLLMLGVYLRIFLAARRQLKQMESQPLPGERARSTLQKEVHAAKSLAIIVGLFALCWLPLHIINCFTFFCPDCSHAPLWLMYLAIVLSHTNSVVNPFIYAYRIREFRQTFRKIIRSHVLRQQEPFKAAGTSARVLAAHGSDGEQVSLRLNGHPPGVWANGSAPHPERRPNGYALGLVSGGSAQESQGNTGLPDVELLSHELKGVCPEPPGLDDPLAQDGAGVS

Row | Kd (Adenosine receptor A2a [1]) | Kd (Adenosine receptor A2a [2]) | Kd (Adenosine receptor A2a [3]) | Kd (Adenosine receptor A2a [4]) | Kd (Adenosine receptor A2a [5]) | Ki (Adenosine receptor A2a [6]) | SMILES
1 | 49.5 nM | 16.5 nM | 42.4 nM | 30.8 nM | 29 nM |  | N=c1ccc2c(-c3ccc(C(=O)NCCNC(=O)COc4ccc(CCCn5ncc6c5nc(N)n5nc(-c7ccco7)nc65)cc4)cc3C(=O)O)c3ccc(N)c(S(=O)(=O)O)c3oc-2c1S(=O)(=O)O
2 |  |  |  |  |  | 39.7 nM | Nc1nc2nn(Cc3ccc(C4(C(F)(F)F)N=N4)cc3)cc2c2nc(-c3ccco3)nn12
3 |  |  |  |  |  | 1520 nM | Nc1nc2c(cnn2Cc2ccc(C3(C(F)(F)F)N=N3)cc2)c2nc(-c3ccco3)nn12
